Literature values, collected in US20090298951A1, “Nontoxic Biocidal Composition And Method Thereof” (priority 2008, published 2009).

Details: 20° C.

For `C/C=C/C=C/C(=O)[O-].[K+]` [potassium sorbate, potassium (E,E)-hexa-2,4-dienoate], the soluble in water is given as 58.2%.
